In patent US8003570B2, “Composition and method for killing nematodes and weeds in soils” (priority 2006, dated 2011):

Experiments:
Type in all cases: in vivo
nematodes [1] = experiment: Example II field trial: soil nematode population and root infection
Description: (§1) Field trials were conducted in Florida where tomatoes are grown under a plastic mulch and an irrigation system, called “T” tapes, which is used to irrigate the crop under the plastic mulch. Design of the experiment were three rows of a standard methyl bromide applications as the smallest replication. Four such sets of three rows were used as replicated applications. There was a zero treatment. Methyl bromide gas used at a 400 pounds per acre basis as the control and the compositions A, B, C. and D were used at a 5 liters per acre basis. Composition A was injected through the “T” tape one day after methyl bromide was injected.
(§2) The plants growing in the middle rows only of these three rows, were used to collect data. In the middle rows, 14 plants were randomly selected for measuring. The height of the plants were collected at 30 days. Starting at fruit harvest, fruits collected from these 14 plants were cumulatively added to give the total production data. At the end of harvest these plants were carefully dug up and roots carefully washed to weigh the total roots and also measure the degree of infection in the roots. Soil samples were also collected from the holes where the plants were dug up and analyzed for soil nematode population. Finally, all nut sedge plants that came through the plastic mulch in the entire 150-yard middle rows were counted as a “strike”, a degree of insufficient kill of the rhizomes.
(§3) In this experiment, methyl bromide was applied at full dose of 400 pounds per acre of the gas and the treatments used 200 pounds of methyl bromide per acre alone and with 5 liters of composition A per acre, 100 pounds of methyl bromide alone and with composition A at 5 liters per acre, 50 pounds of methyl bromide with 5 liters of composition A and the last treatment of 5 liters of composition A per acre by itself. Tomatoes were planted 20 days after methyl bromide was injected under the plastic mulch. Composition A was injected through the “T” tape one day after methyl bromide was injected. The design of Experiment II was the same as in Experiment I, and the data collected were as in the Experiment I. The results of this experiment are shown in Table II.

nut sedge rhizomes [2] = experiment: Example II field trial: nut sedge strikes
Description: as §1, §2, §3

tomatoes [3] = experiment: Example II field trial, methyl bromide dose reduction with or without composition A: tomato growth and production; settings: M.B. 50 lbs. alone
tomatoes [4] = experiment: Example 1 field trial in Florida, tomatoes under plastic mulch: plant height, production, root weight; settings: methyl bromide 400 pounds per acre, compositions 5 liters per acre
Description: as §1, §2

nematodes [5] = experiment: Example 1 field trial in Florida: soil nematode population and root infection; settings: methyl bromide 400 pounds per acre
Description: as §1, §2

nut sedge rhizomes [6] = experiment: Example 1 field trial in Florida: nut sedge strikes through plastic mulch; settings: methyl bromide 400 pounds per acre
Description: as §1
The plants growing in the middle rows only of these three rows, were used to collect data. In the middle rows, 14 plants were randomly selected for measuring. The height of the plants were collected at 30 days. Starting at fruit harvest, fruits collected from these 14 plants were cumulatively added to give the total production data. […] Soil samples were also collected from the holes where the plants were dug up and analyzed for soil nematode population. Finally, all nut sedge plants that came through the plastic mulch in the entire 150-yard middle rows were counted as a “strike”, a degree of insufficient kill of the rhizomes.

tomatoes [7] = experiment: Example II field trial, methyl bromide dose reduction with or without composition A: tomato growth and production
Description: as §1, §2, §3

SMILES: CBr [Methyl Bromide, Methyl bromide]
- Infection in Roots (nematodes [1]; M.B. 50 lbs. alone): high
- Soil Nematode (nematodes [1]; M.B. 50 lbs. alone): 16,000
- Infection in Roots (nematodes [1]; M.B. 100 lbs. per acre alone): high
- Soil Nematode (nematodes [1]; M.B. 100 lbs. per acre alone): 2200/10 gr.
- Infection in Roots (nematodes [1]; M.B. 200 lbs. per acre alone): slight
- Soil Nematode (nematodes [1]; M.B. 200 lbs. per acre alone): 1056/10 gr.
- Infection in Roots (nematodes [1]; M.B. 400 lbs per acre): zero
- Soil Nematode (nematodes [1]; M.B. 400 lbs per acre): zero
- Live nut sedge in 150 yards (nut sedge rhizomes [2]; M.B. 50 lbs. alone): 38 strikes
- Live nut sedge in 150 yards (nut sedge rhizomes [2]; M.B. 100 lbs. per acre alone): 28 strikes
- Live nut sedge in 150 yards (nut sedge rhizomes [2]; M.B. 200 lbs. per acre alone): 18 strikes
- Live nut sedge in 150 yards (nut sedge rhizomes [2]; M.B. 400 lbs per acre): 7 strikes
- Height at 30 Days (tomatoes [3]): 2 ft.
- Production Per Plant (tomatoes [3]): 4 lbs.
- Weight of Roots (tomatoes [3]): 60
- Weight of Roots (tomatoes [4]; end of harvest): 165 gr.
- Height at 30 Days (tomatoes [4]): 2.6 feet
- Production Per Plant (tomatoes [4]): 16 lbs.
- nematode control in the soil (nematodes [5]; Example 1 discussion): superior to compositions A, B, C and D
- Soil Nematode (nematodes [5]; soil at end of harvest, compositions 5 liters per acre): 700/10 gr
- Infection in Roots (nematodes [5]; tomato roots, end of harvest, compositions 5 liters per acre): zero
- efficacy in controlling the weeds (nut sedge rhizomes [6]; Example 1 discussion): same efficacy in controlling the weeds as composition A
- Live nut sedge in 150 yards (nut sedge rhizomes [6]; shoots piercing plastic mulch in 150-yard middle rows, compositions 5 liters per acre): 12/150 strikes″.
- Height at 30 Days (tomatoes [7]; M.B. 100 lbs. per acre alone): 2.2 ft.
- Production Per Plant (tomatoes [7]; M.B. 100 lbs. per acre alone): 5.1 lbs.
- Weight of Roots (tomatoes [7]; M.B. 100 lbs. per acre alone): 90 gr.
- Height at 30 Days (tomatoes [7]; M.B. 200 lbs. per acre alone): 2.7 ft.
- Production Per Plant (tomatoes [7]; M.B. 200 lbs. per acre alone): 6.1 lbs.
- Weight of Roots (tomatoes [7]; M.B. 200 lbs. per acre alone): 120 gr.
- Height at 30 Days (tomatoes [7]; M.B. 400 lbs per acre): 3 ft.
- Production Per Plant (tomatoes [7]; M.B. 400 lbs per acre): 8.6 lbs.
- Weight of Roots (tomatoes [7]; M.B. 400 lbs per acre): 170 gr.
